We go through eleven compounds from EP4800018A1, “PAN-KRAS INHIBITOR AND USE THEREOF IN MEDICINES” (Betta Pharmaceuticals Co., Ltd., priority 2023, dated 2025).

Holding throughout (assay type): cell-based
One assay deals with T1, KRAS G12V-cRAF (Homo sapiens, UniProt P01116, G12V).
T1 construct: expressed in transfected cells
The assay can be described thus: Cellular KRAS G12V-cRAF Binding Inhibition Assay (NanoBRET, AD293 stable cells). The settings on record: 3 h incubation, read-out: NanoBRET KRAS G12V. An outline of the steps:
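Live AD293 stable cells, NanoLuc donor with HaloTag NanoBRET 618 ligand acceptor added overnight. Inhibition percent from luminescence relative to max signal and medium blank; IC50 from curve fitting.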
Background: BRET reads energy transfer from a luciferase to a nearby fluorophore.

Assay [1] has as its system KRAS-G12D mutant tumor cells AGS. The assay can be described thus: Cell Proliferation Inhibition Assay (AGS), Cell-titer GLO, 96 h. The conditions noted are these: AGS cells, 96 h incubation, Cell-titer GLO, read-out: AGS(G12D). An outline of the steps:
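AGS cells (KRAS-G12D) grown in low-attachment plates were exposed to compound for 96 h at 37°C. Viability was read by CellTiter-Glo luminescence and converted to % inhibition against max and blank wells. IC50 came from curve fitting.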

In assay [2] the test system is KRAS-G12V mutant tumor cells SW620. The experiment in a line: Cell Proliferation Inhibition Assay (SW620), Cell-titer GLO, 96 h. The settings on record: SW620 cells, 96 h incubation, Cell-titer GLO, read-out: SW620(G12V). In outline: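 SW620 cells (1×10^3/well, low-attachment) were exposed to compound from 10000 to 0.03 nM (0.5% DMSO) for 96 h at 37°C. Viability was read by Cell-titer GLO luminescence. Inhibition was calculated relative to DMSO and blank wells, and IC50 obtained by curve fitting.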

The next assay concerns the target T2, KRAS G12D-cRAF (Homo sapiens, UniProt P01116, G12D).
T2 construct: expressed in transfected cells
The experiment in a line: Cellular KRAS G12D-cRAF Binding Inhibition Assay (NanoBRET, AD293 stable cells). The settings on record: 3 h incubation, read-out: NanoBRET KRAS G12D. In outline: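 AD293 cells stably expressing KRAS G12D-NanoLuc and cRAF RBD-HaloTag were seeded at 1×10^4 cells/well with NanoBRET 618 ligand overnight. BRET signal was converted to % inhibition of binding relative to max and blank wells, and IC50 came from curve fitting.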

Molecules are shown by their SMILES. Where two headings read alike, the source gives them in different places.

T2 sequence (P01116 1-188 isoform P01116-2 G12D): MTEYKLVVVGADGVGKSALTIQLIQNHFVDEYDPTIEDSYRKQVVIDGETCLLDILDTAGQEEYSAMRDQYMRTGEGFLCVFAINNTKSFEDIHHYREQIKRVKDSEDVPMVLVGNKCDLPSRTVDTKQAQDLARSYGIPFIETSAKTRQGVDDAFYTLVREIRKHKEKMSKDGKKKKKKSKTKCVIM
T1 sequence (P01116 1-188 isoform P01116-2 G12V): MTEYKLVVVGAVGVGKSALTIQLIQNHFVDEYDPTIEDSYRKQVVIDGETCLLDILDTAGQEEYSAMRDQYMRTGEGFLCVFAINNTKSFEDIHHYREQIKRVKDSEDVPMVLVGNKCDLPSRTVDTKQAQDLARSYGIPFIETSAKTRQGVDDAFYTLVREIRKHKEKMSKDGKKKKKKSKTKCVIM

With `CC1OCCCn2c(c3c4cc(ccc42)-c2csc(n2)CC(NC(=O)C2CC2C(F)F)C(=O)N2CCCC(N2)C(=O)OCC(C)(C)C3)-c2cc(N3CCC4(CC3)COC4)cnc21` [Example 125, (1S,2S)-2-(difluoromethyl)-N-((1^5S,6^3S,4SZ)-1^5,10,10-trimethyl-5,7-dioxo-1^2-(2-oxa-7-azaspiro [3.5]nonan-7-yl)-1^8,1^9,6^1,6^2,6^3,6^4,6^5,6^6-octahydro-1^5H,1^7H-8-oxa-1(13,15)-pyrido[3',2':7,8][1,5]oxazonino[5,6-a]indola-2(4,2)-thiazola-6(1,3)-pyridazinacycloundecaphane-4-yl)cyclopropane-1-carboxamide], the IC50 on KRAS G12V-cRAF was 14.7 nM; in assay [1] (Homo sapiens, AGS, 96 h), 2.8 nM; in assay [2] (Homo sapiens, SW-620, 96 h), 0.6 nM; on KRAS G12D-cRAF, 4.55 nM.

For the compound `CC1CN(c2cnc3c(c2)-c2c4c5cc(ccc5n2CCCOC3C)-c2csc(n2)CC(NC(=O)C2CC2C(F)F)C(=O)N2CCCC(N2)C(=O)OCC(C)(C)C4)CC(C)O1` [Example 128, (1S,2S)-2-(difluoromethyl)-N-((1^5S,6^3S,4S,Z)-1^2-((2S,6R)-2,6-dimethylmorpholino)-1^5,0,10-trimethyl-5,7-dioxo-1^8,1^9,6^1,6^2,6^3,6^4,6^5,6^6-octahydro-1^5H,1^7H-8-oxa-1(13,15)-pyrido[3',2':7,8][1,5]oxazonino[5,6-a]indola-2(4,2)-thiazola-6(1,3)-pyridazinacycloundecaphane-4-yl)cyclopropane-1-carboxamide], the IC50 at KRAS G12V-cRAF stood at 11.4 nM; in assay [1] (Homo sapiens, AGS, 96 h), 1.28 nM; in assay [2] (Homo sapiens, SW-620, 96 h), 0.29 nM; on KRAS G12D-cRAF, 2.5 nM.

For the compound `CC1CN(c2cnc3c(c2)-c2c4c5cc(ccc5n2CCCOC3C)-c2csc(n2)CC(NC(=O)C2CC2C(F)F)C(=O)N2CCCC(N2)C(=O)OCC(C)(C)C4)CCO1` [Example 130, (1S,2S)-2-(difluoromethyl)-N-((1^5S,6^3S,4S,Z)-1^5,10,10-trimethyl-1^2-((R)-2-methylmorpholino)-5,7-dioxo-1^8,1^9,6^1,6^2,6^3,6^4,6^5,6^6-octahydro-1^5H,^7H-8-oxa-1(13,15)-pyrido[3',2':7,8][1,5]oxazonino[5,6-a]indola-2(4,2)-thiazola-6(1,3)-pyridazinacycloundecaphane-4-yl)cyclopropane-1-carbox amide], the IC50 worked out at 16.3 nM at KRAS G12V-cRAF; 1.8 nM in assay [1] (Homo sapiens, AGS, 96 h); 0.85 nM in assay [2] (Homo sapiens, SW-620, 96 h); 3.4 nM at KRAS G12D-cRAF.

For the compound `CC1CN(c2cnc3c(c2)-c2c4c5cc(ccc5n2CCCOC3C)-c2csc(n2)CC(NC(=O)C2CC2C(F)F)C(=O)N2CCCC(N2)C(=O)OCC(C)(C)C4)CC(C)O1` [Example 131, (1S,2S)-2-(difluoromethyl)-N-((1^5S,6^3S,4S,Z)-1^2-((2S,6S)-2,6-dimethylmorpholino)-1^5,10,10-trimethyl-5,7-dioxo-1^8,1^9,6^1,6^2,6^3,6^4,6^5,6^6-octahydro-1^5H,1^7H-8-oxa-1(13,15)-pyrido[3',2':7,8][1,5]oxazonino[5,6-a]indola-2(4,2)-thiazola-6(1,3)-pyridazinacycloundecaphane-4-yl)cyclopropane-1-carboxamide], the IC50 worked out at 11 nM at KRAS G12V-cRAF, 1.31 nM in assay [1], 0.51 nM in assay [2] and 2.57 nM on KRAS G12D-cRAF.

`CC1OCCCn2c(c3c4cc(ccc42)-c2csc(n2)CC(NC(=O)C2CC2C(F)F)C(=O)N2CCCC(N2)C(=O)OCC(C)(C)C3)-c2cc(N3CCS(=O)(=O)CC3)cnc21` [Example 133, (1S,2S)-2-(difluoromethyl)-N-((1^5S,6^3S,4S,Z)-1^2-(1,1-dioxidothiomorpholino)-1^5,10,10-trimethy 1-5,7-dioxo-1^8,1^9,6^1,6,^26^3,6^4,6^5,6^6-octahydro-1^5H,1^7H-8-oxa-1(13,15)-pyrido[3',2':7,8][1,5]oxazonino[5,6-alindola-2(4,2)-thiazola-6(1,3)-pyridazinacycloundecaphane-4-yl)cyclopropane-1-carboxamide]: the IC50 at KRAS G12V-cRAF came out at 40.9 nM; in assay [1] (Homo sapiens, AGS, 96 h) it was 1.25 nM; in assay [2] (Homo sapiens, SW-620, 96 h) it was 0.79 nM; on KRAS G12D-cRAF, 9.2 nM.

Take `CC1OCCCn2c(c3c4cc(ccc42)-c2csc(n2)CC(NC(=O)C2CC2C(F)F)C(=O)N2CCCC(N2)C(=O)OCC(C)(C)C3)-c2cc(N3CC[S+]([O-])CC3)cnc21` [Example 134, (1S,2S)-2-(difluoromethyl)-N-(((1^5S,6^3S,4S,Z)-1^5,10,10-trimethyl-1^2-(1-oxidothiomorpholino)-5,7-dioxo-1^8,1^9,6^1,6^2,6^3,6^4,6^5,6^6-octahydro-1^5H,1^7H-8-oxa-1(13,15)-pyrido[3',2':7,8][1,5]oxazonino[5,6-alindola-2(4,2)-thiazola-6(1,3)-pyridazinacycloundecaphane-4-yl)cyclopropane-1-carboxamide]: the IC50 at KRAS G12V-cRAF was found to be 59 nM; in assay [1] (Homo sapiens, AGS, 96 h), 1.7 nM; in assay [2] (Homo sapiens, SW-620, 96 h) it was 1.44 nM; on KRAS G12D-cRAF, 13.7 nM.

Regarding `COC1CCN(c2cnc3c(c2)-c2c4c5cc(ccc5n2CCCOC3C)-c2csc(n2)CC(NC(=O)C2CC2C(F)F)C(=O)N2CCCC(N2)C(=O)OCC(C)(C)C4)C1` [Example 135, (1S,2S)-2-(difluoromethyl)-N-((1^5S,6^3S,4S,Z)-1^2-((R)-3-methoxypyrrolidin-1-yl)-1^5,10,10-trimethyl-5,7-dioxo-1^8, 1^9,6^1 ,6^2,6^3,6^4,6^5 ,6^6-octahydro-1^5H,1^7H-8-oxa-1(13,15)-pyrido[3',2':7,8][1,5]oxazonino[5,6-a]indola-2(4,2)-thiazola-6(1,3)-pyridazinacycloundecaphane-4-yl)cyclopropane-1-car boxamide], the IC50 was found to be 10.6 nM at KRAS G12V-cRAF, 2.2 nM in assay [1], 0.7 nM in assay [2] and 2.39 nM at KRAS G12D-cRAF.

Turning to `COC1CCN(c2cnc3c(c2)-c2c4c5cc(ccc5n2CCCOC3C)-c2csc(n2)CC(NC(=O)C2CC2C(F)F)C(=O)N2CCCC(N2)C(=O)OCC(C)(C)C4)C1` [Example 136, (1S,2S)-2-(difluoromethyl)-N-((1^5S,6^3S,4S,Z)-1^2-((S)-3-methoxypyrrolidin-1-yl)-1^5,10,10-trimethyl-5,7-dioxo-1^8,1^9,6^1,6^2,6^3,6^4,6^5,6^6-octahydro-1^5H,1^7H-8-oxa-1(13,15)-pyrido[3',2':7,8][1,5]oxazonino[5,6-alindola-2(4,2)-thiazola-6(1,3)-pyridazinacycloundecaphane-4-yl)cyclopropane-1-carboxamide], the IC50 worked out at 19.6 nM at KRAS G12V-cRAF, 5.6 nM in assay [1], 1.5 nM in assay [2] and 4.59 nM on KRAS G12D-cRAF.

Take `CC1OCCCn2c(c3c4cc(ccc42)-c2csc(n2)CC(NC(=O)C2CC2C(F)F)C(=O)N2CCCC(N2)C(=O)OCC(C)(C)C3)-c2cc(N3CCN(C)C(C)C3)cnc21` [Example 138, (1S,2S)-2-(difluoromethyl)-N-((1^5S,6^3S,4S,Z)-1^2-((R)-3,4-dimethylpiperazin-1-yl)-1^5,10,10-trimethyl-5,7-dioxo-1^8,1^9,6^1,6^2,6^3,6^4,6^5,6^6-octahydro-1^5H,1^7H-8-oxa-1(13,15)-pyrido[3',2':7,8][1,5]oxazonino[5,6-a]indola-2(4,2)-thiazola-6(1,3)-pyridazinacycloundecaphane-4-yl)cyclopropane-1-carboxamide]: the IC50 at KRAS G12V-cRAF was determined as 14.7 nM; in assay [1] (Homo sapiens, AGS, 96 h), 1.59 nM; in assay [2] (Homo sapiens, SW-620, 96 h), 0.63 nM; at KRAS G12D-cRAF, 3.2 nM.

Take `CC1OCCCn2c(c3c4cc(ccc42)-c2csc(n2)CC(NC(=O)C2CC2C(F)F)C(=O)N2CCCC(N2)C(=O)OCC(C)(C)C3)-c2cc(N3CC(C)N(C)C(C)C3)cnc21` [Example 140, (1S,2S)-2-(difluoromethyl)-N-((1^5S,6^3S,4S,Z)-1^5,10,10-trimethyl-5,7-dioxo-1^2-((3S,5R)-3,4,5-trimethylpiperazin-1-yl)-1^8,1^9,6^1,6^2,6^3,6^4,6^5,6^6-octahydro-1^5H,1^7H-8-oxa-1(13,15)-pyrido[3',2':7,8] [1,5]oxazonino[5,6-a]indola-2(4,2)-thiazola-6(1,3)-pyridazinacycloundecaphane-4-yl)cyclopropane-1-carboxamide]: the IC50 on KRAS G12V-cRAF stood at 9.3 nM; in assay [1] (Homo sapiens, AGS, 96 h), 0.38 nM; in assay [2] (Homo sapiens, SW-620, 96 h), 0.14 nM; at KRAS G12D-cRAF, 1.8 nM.

`CC1OCCCn2c(c3c4cc(ccc42)-c2csc(n2)CC(NC(=O)C2CC2C(F)F)C(=O)N2CCCC(N2)C(=O)OCC(C)(C)C3)-c2cc(N3CC(C)N(C)C(C)C3)cnc21` [Example 142, (1S,2S)-2-(difluoromethyl)-N-((1^5S,6^3S,4S,Z)-1^5,10,10-trimethyl-5,7-dioxo-1^2-((3S,5S)-3,4,5-trimethylpiperazin-1-yl)-1^8,1^9,6^1,6^2,6^3,6^4,6^5,6^6-octahydro-1^5H,1^7H-8-oxa-1(13,15)-pyrido[3',2':7,8] [1,5]oxazonino[5,6-a]indola-2(4,2)-thiazola-6(1,3)-pyridazinacycloundecaphane-4-yl)cyclopropane-1-carboxamide]: the IC50 amounted to 5.61 nM at KRAS G12V-cRAF, 0.3 nM in assay [1], 0.09 nM in assay [2] and 1.88 nM at KRAS G12D-cRAF.
